Values belong to the molecule of their own block, whether it stands above or below them.
Assays:
[1] = target: Serine/threonine-protein kinase Chk2 (Homo sapiens) (UniProt O96017); assay: Selectivity interaction (ActivX KiNativ screen (kinase selectivity in THP-1 cell lysates)) EUB0000639a CHEK2; type: subcellular; details: lysate, at 5 µM
[2] = target: T1, Mitogen-activated protein kinase kinase kinase 19 (Homo sapiens) (UniProt Q56UN5); assay: Selectivity interaction (Kinase panel (Z-LYTE Assay)) EUB0001632a MAP3K19; details: at 10 µM
T1 sequence (whole entry): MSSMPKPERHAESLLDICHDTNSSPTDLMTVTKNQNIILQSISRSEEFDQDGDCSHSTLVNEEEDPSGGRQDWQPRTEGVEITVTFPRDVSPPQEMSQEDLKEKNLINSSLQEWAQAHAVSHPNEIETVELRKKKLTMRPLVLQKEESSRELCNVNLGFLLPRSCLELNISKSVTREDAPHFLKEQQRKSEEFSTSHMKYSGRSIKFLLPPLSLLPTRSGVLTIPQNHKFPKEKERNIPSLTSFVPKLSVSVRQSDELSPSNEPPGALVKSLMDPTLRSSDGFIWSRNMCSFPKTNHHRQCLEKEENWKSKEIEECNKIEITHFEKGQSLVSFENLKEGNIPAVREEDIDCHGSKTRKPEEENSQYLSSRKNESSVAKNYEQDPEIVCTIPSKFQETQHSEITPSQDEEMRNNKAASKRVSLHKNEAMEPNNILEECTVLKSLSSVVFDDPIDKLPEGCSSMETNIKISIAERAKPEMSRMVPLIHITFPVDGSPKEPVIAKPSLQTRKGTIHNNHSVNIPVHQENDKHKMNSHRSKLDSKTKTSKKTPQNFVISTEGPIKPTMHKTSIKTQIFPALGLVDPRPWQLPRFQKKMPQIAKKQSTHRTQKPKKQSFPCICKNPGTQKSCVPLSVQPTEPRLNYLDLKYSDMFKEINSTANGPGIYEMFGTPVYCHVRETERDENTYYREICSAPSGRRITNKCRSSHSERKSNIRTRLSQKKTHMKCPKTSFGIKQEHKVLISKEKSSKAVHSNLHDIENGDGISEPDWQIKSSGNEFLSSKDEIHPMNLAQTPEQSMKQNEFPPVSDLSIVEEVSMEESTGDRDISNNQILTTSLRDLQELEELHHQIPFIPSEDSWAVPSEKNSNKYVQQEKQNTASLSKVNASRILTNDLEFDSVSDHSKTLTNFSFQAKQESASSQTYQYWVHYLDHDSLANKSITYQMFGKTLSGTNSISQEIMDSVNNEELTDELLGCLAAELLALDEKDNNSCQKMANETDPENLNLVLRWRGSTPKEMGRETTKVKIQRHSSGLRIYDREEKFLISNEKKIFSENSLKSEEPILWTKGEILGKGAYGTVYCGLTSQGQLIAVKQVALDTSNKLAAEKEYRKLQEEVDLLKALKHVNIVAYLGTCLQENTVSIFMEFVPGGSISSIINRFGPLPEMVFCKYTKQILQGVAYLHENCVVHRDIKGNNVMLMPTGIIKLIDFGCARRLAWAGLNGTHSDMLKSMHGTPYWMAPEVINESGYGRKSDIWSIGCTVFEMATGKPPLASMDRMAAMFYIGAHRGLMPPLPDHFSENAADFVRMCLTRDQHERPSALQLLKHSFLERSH

[3] = target: Tyrosine-protein kinase BTK (Homo sapiens, UniProt Q06187); assay: Selectivity interaction (KinomeScan (DiscoverX)) EUB0000595a BTK; details: at 10 µM
[4] = target: Non-receptor tyrosine-protein kinase TYK2 (Homo sapiens, UniProt P29597); assay: Selectivity interaction (KinomeScan (DiscoverX)) EUB0000092b TYK2; details: at 10 µM
[5] = target: Serine/threonine-protein kinase B-raf (Homo sapiens) (UniProt P15056); assay: Selectivity interaction (Kinase panel (Eurofins)) EUB0001564a BRAF; details: at 1 µM
[6] = target: T2, MAP/microtubule affinity-regulating kinase 4 (Homo sapiens) (UniProt Q96L34); assay: Selectivity interaction (KinomeScan (DiscoverX)) EUB0000655a MARK4; details: at 10 µM
T2 sequence (whole entry): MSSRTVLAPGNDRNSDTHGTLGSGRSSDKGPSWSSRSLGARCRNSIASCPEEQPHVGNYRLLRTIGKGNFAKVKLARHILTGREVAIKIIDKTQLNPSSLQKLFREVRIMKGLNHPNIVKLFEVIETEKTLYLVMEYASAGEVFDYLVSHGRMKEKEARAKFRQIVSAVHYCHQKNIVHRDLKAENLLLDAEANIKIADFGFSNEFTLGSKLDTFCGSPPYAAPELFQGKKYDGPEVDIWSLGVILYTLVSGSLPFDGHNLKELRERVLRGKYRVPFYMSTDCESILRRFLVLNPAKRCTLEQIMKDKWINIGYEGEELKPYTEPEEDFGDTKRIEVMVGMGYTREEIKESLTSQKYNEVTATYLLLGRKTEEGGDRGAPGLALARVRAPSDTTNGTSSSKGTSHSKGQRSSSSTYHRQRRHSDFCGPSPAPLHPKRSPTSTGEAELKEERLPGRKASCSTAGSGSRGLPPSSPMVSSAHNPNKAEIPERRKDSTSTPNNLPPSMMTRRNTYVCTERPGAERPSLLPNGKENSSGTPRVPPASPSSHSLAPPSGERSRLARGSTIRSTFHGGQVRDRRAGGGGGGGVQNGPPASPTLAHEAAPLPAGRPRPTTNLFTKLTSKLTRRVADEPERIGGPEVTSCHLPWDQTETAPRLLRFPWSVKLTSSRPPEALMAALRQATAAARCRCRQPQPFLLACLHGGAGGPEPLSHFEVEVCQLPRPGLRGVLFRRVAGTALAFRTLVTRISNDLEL

[7] = target: MAP kinase-activated protein kinase 2 (Homo sapiens, UniProt P49137); assay: Selectivity interaction (SelectScreen profiling (Invitrogen)) EUB0000607a MAPKAPK2; details: at 2 µM
[8] = target: Glycogen synthase kinase-3 alpha (Homo sapiens, UniProt P49840); assay: Selectivity interaction (KinomeScan (DiscoverX)) EUB0000666a GSK3A; details: at 10 µM
[9] = target: Phosphatidylinositol 4,5-bisphosphate 3-kinase catalytic subunit gamma isoform (Homo sapiens) (UniProt P48736); assay: Selectivity interaction (Panel of kinases, GPCRs, ion channels and transporters (enzymatic assay)) EUB0000223bCl PIK3CG
Chain of Phosphatidylinositol 4,5-bisphosphate 3-kinase catalytic subunit gamma isoform (Homo sapiens) (P48736 whole entry, looked up, canonical isoform): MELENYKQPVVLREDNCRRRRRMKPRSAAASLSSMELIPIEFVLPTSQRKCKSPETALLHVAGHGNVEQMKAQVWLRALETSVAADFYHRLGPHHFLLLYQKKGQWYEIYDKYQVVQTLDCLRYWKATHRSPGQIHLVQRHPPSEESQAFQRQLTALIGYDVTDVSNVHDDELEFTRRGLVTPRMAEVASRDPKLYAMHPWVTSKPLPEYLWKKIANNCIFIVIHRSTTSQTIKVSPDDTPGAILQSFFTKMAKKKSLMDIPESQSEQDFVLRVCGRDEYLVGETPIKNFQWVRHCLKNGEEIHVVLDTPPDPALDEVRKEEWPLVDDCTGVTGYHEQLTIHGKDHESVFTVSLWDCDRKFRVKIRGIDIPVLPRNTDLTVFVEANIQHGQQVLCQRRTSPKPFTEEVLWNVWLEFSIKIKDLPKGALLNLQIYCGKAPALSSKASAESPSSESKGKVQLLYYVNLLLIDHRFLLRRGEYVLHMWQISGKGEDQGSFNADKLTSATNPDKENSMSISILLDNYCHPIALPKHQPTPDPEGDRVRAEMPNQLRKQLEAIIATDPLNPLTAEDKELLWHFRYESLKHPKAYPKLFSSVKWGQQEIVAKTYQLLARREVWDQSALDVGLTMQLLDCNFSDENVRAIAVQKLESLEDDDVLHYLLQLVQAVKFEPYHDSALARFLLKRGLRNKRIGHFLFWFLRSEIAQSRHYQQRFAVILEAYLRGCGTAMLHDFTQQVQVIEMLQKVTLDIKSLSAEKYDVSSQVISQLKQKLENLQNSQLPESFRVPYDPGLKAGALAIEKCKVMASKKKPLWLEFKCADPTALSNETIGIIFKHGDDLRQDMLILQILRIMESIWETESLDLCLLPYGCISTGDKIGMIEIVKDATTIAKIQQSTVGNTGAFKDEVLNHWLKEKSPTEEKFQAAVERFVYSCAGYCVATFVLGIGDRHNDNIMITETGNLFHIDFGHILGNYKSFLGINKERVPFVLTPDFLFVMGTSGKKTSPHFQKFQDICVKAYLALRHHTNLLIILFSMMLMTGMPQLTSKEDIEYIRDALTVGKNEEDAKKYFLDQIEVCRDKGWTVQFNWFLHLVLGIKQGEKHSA

Chain of Glycogen synthase kinase-3 alpha (P49840 2-483 limits assumed): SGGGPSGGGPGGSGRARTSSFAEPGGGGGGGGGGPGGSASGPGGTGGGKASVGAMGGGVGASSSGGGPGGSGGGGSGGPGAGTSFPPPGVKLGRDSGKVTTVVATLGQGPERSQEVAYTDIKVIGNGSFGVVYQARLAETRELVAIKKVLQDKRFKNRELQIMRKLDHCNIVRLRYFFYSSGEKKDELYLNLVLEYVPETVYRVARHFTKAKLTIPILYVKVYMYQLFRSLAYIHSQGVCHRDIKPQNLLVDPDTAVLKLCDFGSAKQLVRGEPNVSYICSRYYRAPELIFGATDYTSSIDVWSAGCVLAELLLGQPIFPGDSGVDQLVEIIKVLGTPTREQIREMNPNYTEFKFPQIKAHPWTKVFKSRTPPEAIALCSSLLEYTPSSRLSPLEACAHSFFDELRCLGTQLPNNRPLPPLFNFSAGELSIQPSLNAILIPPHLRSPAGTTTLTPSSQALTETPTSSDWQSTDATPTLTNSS
Chain of Non-receptor tyrosine-protein kinase TYK2 (P29597 whole entry): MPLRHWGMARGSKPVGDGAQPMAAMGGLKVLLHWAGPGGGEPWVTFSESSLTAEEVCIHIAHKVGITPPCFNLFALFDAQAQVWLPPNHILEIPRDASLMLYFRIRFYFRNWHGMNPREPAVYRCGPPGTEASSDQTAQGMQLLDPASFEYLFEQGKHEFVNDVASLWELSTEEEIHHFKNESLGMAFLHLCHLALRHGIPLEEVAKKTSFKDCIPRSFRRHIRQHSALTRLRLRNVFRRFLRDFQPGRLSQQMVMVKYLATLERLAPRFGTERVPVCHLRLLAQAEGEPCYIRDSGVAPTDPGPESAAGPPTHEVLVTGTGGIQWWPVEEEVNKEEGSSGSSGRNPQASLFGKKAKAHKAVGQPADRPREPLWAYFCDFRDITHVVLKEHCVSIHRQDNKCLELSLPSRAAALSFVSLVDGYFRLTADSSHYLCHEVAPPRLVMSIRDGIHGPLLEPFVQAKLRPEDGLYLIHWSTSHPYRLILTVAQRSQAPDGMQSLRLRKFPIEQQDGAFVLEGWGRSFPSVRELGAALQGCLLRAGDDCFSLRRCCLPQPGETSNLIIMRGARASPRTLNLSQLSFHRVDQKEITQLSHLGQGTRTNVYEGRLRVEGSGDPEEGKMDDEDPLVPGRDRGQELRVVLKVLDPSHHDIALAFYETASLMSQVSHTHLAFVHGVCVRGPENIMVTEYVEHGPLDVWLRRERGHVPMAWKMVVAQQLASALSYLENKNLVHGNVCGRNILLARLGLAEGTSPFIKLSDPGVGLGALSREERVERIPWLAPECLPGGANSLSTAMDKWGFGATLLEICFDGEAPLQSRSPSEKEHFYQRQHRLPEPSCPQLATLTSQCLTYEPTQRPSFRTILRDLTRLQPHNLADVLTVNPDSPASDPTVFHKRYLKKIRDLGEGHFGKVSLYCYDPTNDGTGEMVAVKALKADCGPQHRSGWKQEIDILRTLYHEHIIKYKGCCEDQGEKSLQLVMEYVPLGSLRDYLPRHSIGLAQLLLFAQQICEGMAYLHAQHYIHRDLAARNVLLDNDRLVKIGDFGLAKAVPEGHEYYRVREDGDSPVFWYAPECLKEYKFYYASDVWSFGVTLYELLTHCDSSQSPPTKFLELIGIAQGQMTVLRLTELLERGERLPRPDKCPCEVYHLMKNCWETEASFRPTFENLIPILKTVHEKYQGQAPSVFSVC
Chain of Serine/threonine-protein kinase B-raf (Homo sapiens) (P15056 whole entry): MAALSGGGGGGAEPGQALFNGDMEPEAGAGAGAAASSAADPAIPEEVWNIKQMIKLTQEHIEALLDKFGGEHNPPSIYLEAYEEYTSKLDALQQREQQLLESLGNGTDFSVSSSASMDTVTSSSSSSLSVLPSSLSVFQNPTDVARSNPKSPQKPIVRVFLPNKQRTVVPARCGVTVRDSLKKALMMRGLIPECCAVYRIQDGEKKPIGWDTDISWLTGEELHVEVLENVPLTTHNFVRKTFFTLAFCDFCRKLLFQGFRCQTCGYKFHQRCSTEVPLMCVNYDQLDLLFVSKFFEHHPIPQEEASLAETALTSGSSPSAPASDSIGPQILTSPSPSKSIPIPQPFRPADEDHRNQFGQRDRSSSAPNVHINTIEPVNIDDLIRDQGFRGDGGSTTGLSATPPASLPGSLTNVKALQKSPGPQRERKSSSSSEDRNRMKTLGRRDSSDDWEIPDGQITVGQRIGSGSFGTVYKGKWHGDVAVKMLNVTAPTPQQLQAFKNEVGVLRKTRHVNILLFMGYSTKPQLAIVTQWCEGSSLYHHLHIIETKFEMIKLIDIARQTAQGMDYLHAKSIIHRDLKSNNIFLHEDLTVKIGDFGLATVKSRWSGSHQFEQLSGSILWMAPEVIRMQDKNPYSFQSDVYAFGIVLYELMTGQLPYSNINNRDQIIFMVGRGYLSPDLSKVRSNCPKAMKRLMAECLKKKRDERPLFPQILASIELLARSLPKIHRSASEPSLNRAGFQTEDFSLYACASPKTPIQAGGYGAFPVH
Chain of MAP kinase-activated protein kinase 2 (P49137 whole entry, looked up): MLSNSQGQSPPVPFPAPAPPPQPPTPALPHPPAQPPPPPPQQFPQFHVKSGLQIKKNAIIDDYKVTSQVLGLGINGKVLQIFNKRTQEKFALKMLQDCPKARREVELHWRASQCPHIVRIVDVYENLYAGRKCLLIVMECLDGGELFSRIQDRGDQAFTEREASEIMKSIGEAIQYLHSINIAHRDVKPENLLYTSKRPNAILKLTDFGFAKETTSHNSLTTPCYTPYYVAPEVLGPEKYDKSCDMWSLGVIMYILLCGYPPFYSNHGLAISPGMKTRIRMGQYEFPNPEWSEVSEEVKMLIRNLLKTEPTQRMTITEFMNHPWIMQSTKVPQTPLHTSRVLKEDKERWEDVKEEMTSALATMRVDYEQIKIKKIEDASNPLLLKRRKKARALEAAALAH
Chain of Tyrosine-protein kinase BTK (Q06187 whole entry): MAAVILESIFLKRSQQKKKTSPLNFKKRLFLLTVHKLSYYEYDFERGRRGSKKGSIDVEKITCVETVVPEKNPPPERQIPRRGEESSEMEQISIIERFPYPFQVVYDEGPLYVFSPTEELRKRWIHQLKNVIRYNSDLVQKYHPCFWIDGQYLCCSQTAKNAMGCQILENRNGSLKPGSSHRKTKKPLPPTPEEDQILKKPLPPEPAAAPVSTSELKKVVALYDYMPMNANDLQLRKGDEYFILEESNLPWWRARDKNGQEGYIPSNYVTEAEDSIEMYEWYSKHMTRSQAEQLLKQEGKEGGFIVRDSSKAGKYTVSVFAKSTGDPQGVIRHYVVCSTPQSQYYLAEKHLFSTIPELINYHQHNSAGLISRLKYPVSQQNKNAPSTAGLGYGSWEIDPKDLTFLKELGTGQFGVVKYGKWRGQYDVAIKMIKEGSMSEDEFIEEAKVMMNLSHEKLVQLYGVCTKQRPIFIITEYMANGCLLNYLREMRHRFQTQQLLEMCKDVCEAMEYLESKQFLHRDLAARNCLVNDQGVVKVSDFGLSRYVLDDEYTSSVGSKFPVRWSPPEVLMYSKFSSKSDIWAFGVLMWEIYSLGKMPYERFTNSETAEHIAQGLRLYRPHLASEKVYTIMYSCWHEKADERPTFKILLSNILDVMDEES

- % of inhibition [1]: 65.9%
Structure (SMILES): CC[C@@H]1[C@H](F)C(=O)N[C@@H]1COc1nccc2cc(C(N)=O)c(OC)cc12 [ZIMLOVISERTIB]

- % of control [2]: -3.06%
Structure (SMILES): Cn1cc(-n2cnc3c(NCc4nc5cc(Cl)c(Cl)cc5[nH]4)nc(N4CCOCC4)nc32)cn1

Structure (SMILES): COCC(=O)NC/C=C/c1ccc2ncnc(Nc3ccc(Oc4ccc(C)nc4)c(C)c3)c2c1 [CP-724714]
- % of control [3]: 68%

Structure (SMILES): CCC(=O)N1CCN(c2ccc(-n3c(=O)ccc4cnc5ccc(-c6cnc7ccccc7c6)cc5c43)cc2C(F)(F)F)CC1
- % of control [4]: 70%

- % of inhibition [5]: 23.5%
Structure (SMILES): CC[C@@H](Nc1c(C#N)c(-c2ccc(-c3cccc(C)c3F)cc2)nc2cnccc12)C(=O)O [BAY-091]

Structure (SMILES): CN(C)CCOc1ccc(-c2nc(-c3ccncc3)c(-c3ccc4c(c3)CC/C4=N\O)[nH]2)cc1
- % of control [6]: 100%

Structure (SMILES): CNC(=O)Nc1ccc(-c2nc(N3CC4CCC(C3)O4)c3cnn(C4CCC5(CC4)OCCO5)c3n2)cc1
- % of inhibition [7]: 4%

Structure (SMILES): O=C(NOC[C@H](O)CO)c1ccc(F)c(F)c1Nc1ccc(I)cc1F
- % of control [8]: 90%

Structure (SMILES): COc1cc(C(=O)N2CC[C@@H](O)[C@@H](N)C2)cc2nc(-c3cc4ccccc4n3CC3CC3)n(C)c12
- pXC50 [9]: < 4.5 M

Reference: ChEMBL document CHEMBL5465560, “Selectivity Literature for EUbOPEN Chemogenomic Library” (2024)
